The values below come from ChEMBL document CHEMBL5537110, “SIRT1-dependent mitochondrial biogenesis supports therapeutic effects of 4-butyl-polyhydroxybenzophenone compounds against NAFLD” (Eur J Med Chem, 2023).

Active and inactive are the calls of the source. The calls are words filed in the database; no cut-off is given here.

For test [1], the target named is T1, Peroxisome proliferator-activated receptor gamma coactivator 1-alpha (Homo sapiens) (UniProt Q9UBK2).
T1 sequence (whole entry): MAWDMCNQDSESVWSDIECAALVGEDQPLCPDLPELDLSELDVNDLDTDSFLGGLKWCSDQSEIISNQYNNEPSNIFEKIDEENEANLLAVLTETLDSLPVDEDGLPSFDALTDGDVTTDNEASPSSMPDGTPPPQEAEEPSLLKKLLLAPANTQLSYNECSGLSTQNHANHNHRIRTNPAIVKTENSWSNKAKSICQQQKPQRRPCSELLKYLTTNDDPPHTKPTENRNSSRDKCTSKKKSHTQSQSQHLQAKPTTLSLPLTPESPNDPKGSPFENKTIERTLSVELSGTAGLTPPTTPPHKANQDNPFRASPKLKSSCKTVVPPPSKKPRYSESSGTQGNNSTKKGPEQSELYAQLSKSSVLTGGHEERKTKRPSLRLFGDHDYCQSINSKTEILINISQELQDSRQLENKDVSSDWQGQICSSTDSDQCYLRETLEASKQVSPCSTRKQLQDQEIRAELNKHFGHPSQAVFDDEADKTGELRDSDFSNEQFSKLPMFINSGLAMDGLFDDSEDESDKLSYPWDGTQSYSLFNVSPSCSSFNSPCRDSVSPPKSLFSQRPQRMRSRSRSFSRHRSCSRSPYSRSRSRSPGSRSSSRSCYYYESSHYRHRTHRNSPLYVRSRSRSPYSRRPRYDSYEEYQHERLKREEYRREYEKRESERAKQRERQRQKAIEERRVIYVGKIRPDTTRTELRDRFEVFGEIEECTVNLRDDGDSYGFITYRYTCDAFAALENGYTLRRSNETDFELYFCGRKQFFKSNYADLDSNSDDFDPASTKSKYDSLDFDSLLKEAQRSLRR
Nature of the test: Binding affinity to PGC1alpha (unknown origin) by surface plasmon resonance assay. To be noted: filed as activator.

Test [2] has as its target T2, NAD-dependent protein deacetylase sirtuin-1 (Homo sapiens) (UniProt Q96EB6).
T2 sequence (whole entry): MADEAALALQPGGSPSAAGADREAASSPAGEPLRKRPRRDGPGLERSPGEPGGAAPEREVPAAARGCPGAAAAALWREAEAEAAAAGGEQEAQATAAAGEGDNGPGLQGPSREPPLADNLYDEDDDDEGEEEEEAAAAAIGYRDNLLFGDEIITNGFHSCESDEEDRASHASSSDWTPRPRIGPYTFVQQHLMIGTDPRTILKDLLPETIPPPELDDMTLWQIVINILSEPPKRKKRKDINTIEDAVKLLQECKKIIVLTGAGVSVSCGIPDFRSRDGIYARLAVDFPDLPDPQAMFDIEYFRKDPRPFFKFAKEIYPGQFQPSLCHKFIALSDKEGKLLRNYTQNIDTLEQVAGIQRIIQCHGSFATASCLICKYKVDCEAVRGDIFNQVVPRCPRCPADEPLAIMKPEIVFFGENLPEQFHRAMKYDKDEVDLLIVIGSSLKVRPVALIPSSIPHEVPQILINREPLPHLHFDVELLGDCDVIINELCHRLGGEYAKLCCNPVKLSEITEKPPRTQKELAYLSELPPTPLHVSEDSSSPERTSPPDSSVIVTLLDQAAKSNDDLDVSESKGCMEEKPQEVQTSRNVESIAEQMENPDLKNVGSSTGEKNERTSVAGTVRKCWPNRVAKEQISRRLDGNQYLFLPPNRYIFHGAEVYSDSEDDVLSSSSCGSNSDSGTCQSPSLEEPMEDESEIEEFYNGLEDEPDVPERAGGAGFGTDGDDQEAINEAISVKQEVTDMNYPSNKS
Nature of the test: Binding affinity to SIRT1 (unknown origin) by surface plasmon resonance assay. To be noted: filed as activator.

For test [3], the system named is EA.hy 926. In words: Cytoprotective activity against H2O2-induced toxicity in human EA.hy 926 cells assessed as protective rate pretreated with compound for 4 hrs followed by incubation with H2O2 for 2 hrs by absorbance based analysis. Type of test: functional, cell-based.
Test [4] has as its system EA.hy 926. In words: Cytoprotective activity against H2O2-induced toxicity in human EA.hy 926 cells assessed as protective rate at 10 uM pretreated with compound for 4 hrs followed by incubation with H2O2 for 2 hrs by absorbance based analysis. Type of test: functional. To be noted: time 6 hrs.

As to `CC(C)Cc1ccc(C(=O)c2cc(O)c(O)cc2F)cc1`, the outcome in test [1] and in test [2] was Active. In addition, the EC50 in the test with EA.hy 926 [3] came to 80.8 nM. The Activity in the test on EA.hy 926 [4] is on record as 93.75%. With `CC(C)Cc1ccc(C(=O)c2c(O)cc(O)cc2Cl)cc1`, in the test on EA.hy 926 [4], the Activity is given as -8.4%. For `CC(C)(C)c1ccc(C(=O)c2c(O)cc(O)cc2O)cc1`, the Activity with EA.hy 926 [4] is recorded as -64%. In the case of `CC(C)Cc1ccc(C(=O)c2ccc(O)c(O)c2O)cc1`, the result in test [1] and in test [2] was Active. Further, the EC50 with EA.hy 926 [3] amounted to 118 nM. For the same compound, in the test with EA.hy 926 [4], the Activity is listed as 93.75%.

`CCCCc1ccc(C(=O)c2ccc(O)c(O)c2O)cc1`: in the test with EA.hy 926 [4], the Activity turned out to be 64.71%.

In the case of `O=c1c(O)c(-c2ccc(O)c(O)c2)oc2cc(O)cc(O)c12` [QUERCETIN], the EC50 in the test with EA.hy 926 [3] stood at 2670 nM. Besides, the Activity in the test on EA.hy 926 [4] is on record as 55.2%. With `CCCCc1ccc(C(=O)c2c(O)cc(O)cc2Cl)cc1`, the Activity in the test on EA.hy 926 [4] stood at 38.47%. On the same count and under the same terms, the result for `COc1cc(O)cc(Cl)c1C(=O)c1ccc(C(C)(C)C)cc1` reads -64%; that for `CCCCc1ccc(C(=O)c2cc(O)c(Cl)cc2O)cc1`, 21.66%. Still for that read-out and setting: for `CC(C)Cc1ccc(C(=O)c2cc(O)ccc2O)cc1` the value was 8.96%.

Consider `CC(C)Cc1ccc(C(=O)c2c(O)cc(O)cc2O)cc1`, for which, in the test with EA.hy 926 [4], the Activity is listed as 21.63%.

`CCCCc1ccc(C(=O)c2ccc(O)c(O)c2)cc1`: the result in test [1] and in test [2] was Active. Besides, the EC50 in the test on EA.hy 926 [3] was 84.2 nM. For the same compound, the Activity in the test with EA.hy 926 [4] is on record as 70.59%.

Turning to `COc1cc(O)cc(Cl)c1C(=O)c1ccc(CC(C)C)cc1`, in the test with EA.hy 926 [4], the Activity was found to be 2.99%. The same measure, in the same setting: the result for `CCCCc1ccc(C(=O)c2cc(O)ccc2O)cc1` reads 39.03%; that for `CCCCc1ccc(C(=O)c2c(Cl)cc(O)cc2OC)cc1`, 11.76%.

Regarding `CC(C)(C)c1ccc(C(=O)c2cc(O)c(O)cc2F)cc1`, the result in test [1] and in test [2] was Active. Moreover, the EC50 in the test with EA.hy 926 [3] was 104 nM. In addition, the Activity in the test on EA.hy 926 [4] came out at 80.56%.

With `CC(C)(C)c1ccc(C(=O)c2cc(O)c(Cl)cc2O)cc1`, in the test with EA.hy 926 [4], the Activity was -67%. The same measure, in the same setting: the result for `CCCCc1ccc(C(=O)c2c(O)cc(O)cc2O)cc1` reads 36.04%; that for `Cc1c(O)ccc(C(=O)c2ccc(CC(C)C)cc2)c1O`, 17.37%. As for `CCCCc1ccc(C(=O)c2ccc(O)c(C)c2O)cc1`, the Activity with EA.hy 926 [4] is on record as 2.8%.

For `CC(C)(C)c1ccc(C(=O)c2cc(O)ccc2O)cc1`, in the test on EA.hy 926 [4], the Activity is listed as -7%.

With `CC(C)Cc1ccc(C(=O)c2ccc(O)c(O)c2)cc1`, the outcome in test [1] and in test [2] was Active. Further, the EC50 in the test with EA.hy 926 [3] was determined as 81 nM. Moreover, in the test on EA.hy 926 [4], the Activity was determined as 93.75%. On to `CCCCc1ccc(C(=O)c2cc(O)c(O)cc2F)cc1`, for which the Activity in the test with EA.hy 926 [4] amounted to 58.82%.

Turning to `CC(C)(C)c1ccc(C(=O)c2c(O)cc(O)cc2Cl)cc1`, the Activity with EA.hy 926 [4] is on record as -49%.

As to `Cc1c(O)ccc(C(=O)c2ccc(C(C)(C)C)cc2)c1O`, the Activity in the test on EA.hy 926 [4] is listed as -67.36%.

Regarding `CC(C)Cc1ccc(C(=O)c2cc(O)c(Cl)cc2O)cc1`, the Activity with EA.hy 926 [4] was -3.92%. The same measure, in the same setting: for `CC(C)(C)c1ccc(C(=O)c2ccc(O)c(O)c2O)cc1` the value was -6.9%.
